What was measured:
[1] = 15 mg/kg/day of L-Carnitine, 26 weeks, cited from earlier work
[2] = 3,000 mg/day of L-Carnitine, 10 weeks, calorie restriction, increased physical activity; cited from earlier work
[3] = 2,000 mg/day of L-Carnitine, 26 weeks, diet of 1,400 to 1,600 Kcal/day; cited from earlier work
[4] = Comparative, open-label, controlled clinical trial of Orlistat/L-Carnitine (OL-CA) vs Orlistat (OL) and L-Carnitine (CA) in adults with overweight above 10 %; assay type: in vivo, human; settings: end of treatment (12 weeks), n = 20 per group; for subjects who reached a normal weight: one capsule a day
Experimental: A randomised, parallel, cross-over, prospective, open-label clinical trial.
Male and/or female subjects aged above 18 years, with overweight above 10 % their ideal weight.
• Group 1. Orlistat (OL) 120 mg, one capsule a day for 12 weeks. • Group 2. L-Carnitine (CA) 600 mg, one capsule a day for 12 weeks. • Group 3. Orlistat 120 mg and L-Carnitine 600 mg (OL-CA) in one capsule a day for 12 weeks.
• No other drug therapy was permitted for obesity and overweigh using any administration route during the clinical trial.
• Three treatment groups with random distribution 1:!;1
• Male and/or female subjects over 18 years of age. • Overweight above 10 % of their ideal weight or a Body Mass Index (BMI) of 28 kg/m2 or higher. • Poor response to previous diet therapy. • No participation in a clinical trial with a test drug or device for 30 days before the planned start of treatment. • Patients with or without risk factors associated with obesity (type 2 diabetes and systemic hypertension). • Following a nutritionally balanced and moderately hypocaloric plan containing about 30 % of calories from fat. • Women with child-bearing potential should use some contraceptive method during the treatment.
• Under 18 years of age • History of hypersensitivity to the components of the formula • Patients with any organ failure • Patients with a history of intolerance to lactose • Patients with a history of bowel malabsorption syndrome and cholestasis • Patients with suspected or diagnosed pancreatic disorder • Pregnant and/or nursing women • Diagnosed or suspected thyroid disorder • Patients currently on anticoagulants or cyclosporine and amiodarone.
Randomisation in to the study was stratified at a 1:1:1 ratio. The subjects were classified according to their body mass index. • Group A, 20 subjects with overweight, BMI of 25 to 29.9 kg/m2 • Group B, 20 subjects with grade 2 obesity, BMI of 30-39 kg/m2 • Group C, 20 subjects with grade 3 obesity BMI above 40 kg/m2 With regard to the BMI, the following values and interpretation are given • BMI 20 to 25 kg/m^2 = normal weight • BMI 25 to 29.9 kg/m^2 = Overweight • BMI 30 to 39 kg/m^2 - Grade 2 obesity • BMI above 40 kg/m^2 = Grade 3 obesity

SMILES | weight loss in the treatment group ([1]; restriction of 1,500 Kcal in diet, 60 subjects with obesity) | weight loss (significance) [1] | weight loss between the two groups [2] | weight loss or differences between the groups at the end of the study [3] | patients reaching grade 2 obesity [4] | patients reaching grade 2 obesity (number) [4] | subjects who documented overweight [4] | subjects who documented overweight (number) [4] | subjects who reached a normal weight (number) [4] | subjects with grade 3 obesity [4] | subjects with grade 3 obesity (number) [4] | subjects who reached a normal weight [4]
C[N+](C)(C)C[C@H](O)CC(=O)[O-] [CA, L-Carnitine] | 1.9 kg | not significant | No significant weight loss | No significant weight loss or differences between the groups | 75% | 15 subjects | 15% | 3 subjects | one | 5% | 1 subjects | 5%
CCCCCCCCCCC[C@@H](C[C@@H]1OC(=O)[C@H]1CCCCCC)OC(=O)[C@H](CC(C)C)NC=O [OL] | – | – | – | – | 65% | 13 subjects | 10% | 2 subjects | one | 20% | 4 subjects | 5%
